Assay results reported in PubChem BioAssay AID330 (DTP/NCI, 2004).
Where “and” joins values, the source holds several entries; their conditions need not be identical. Equal values may be shown once. Inconclusive results and toxic doses are left out.

Tested on: P388 leukemia ip, CD2F1 mice, survival T/C
Assay: NCI In Vivo Anticancer Drug Screen. Data for tumor model P388 Leukemia (intraperitoneal) in CD2F1 (CDF1) mice
Conditions: endpoint: median survival time, higher = longer survival
Summary of the method: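 Mice carrying the transplanted tumor received test compound or vehicle. Survival was recorded in each group, and the value is the treated-group measurement divided by that of the vehicle-treated control group.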

[1] = dose: 50.0 mg/kg/injection, schedule: Q01DX005 (ip), vehicle: Klucel (hydroxypropylcellulose) (HPC)
[2] = dose: 100.0 mg/kg/injection, schedule: Q01DX005 (ip), vehicle: Klucel (hydroxypropylcellulose) (HPC)
[3] = dose: 200.0 mg/kg/injection, schedule: Q01DX005 (ip), vehicle: Klucel (hydroxypropylcellulose) (HPC)
[4] = dose: 60.0 mg/kg/injection, schedule: Q01DX005 (ip), vehicle: saline with Tween-80
[5] = dose: 120.0 mg/kg/injection, schedule: Q01DX005 (ip), vehicle: saline with Tween-80
[6] = dose: 240.0 mg/kg/injection, schedule: Q01DX005 (ip), vehicle: saline with Tween-80
[7] = dose: 50.0 mg/kg/injection, schedule: Q01DX009 (ip), vehicle: saline
[8] = dose: 100.0 mg/kg/injection, schedule: Q01DX009 (ip), vehicle: saline
[9] = dose: 200.0 mg/kg/injection, schedule: Q01DX009 (ip), vehicle: saline
[10] = dose: 50.0 mg/kg/injection, schedule: Q01DX009 (ip), vehicle: saline with Tween-80
[11] = dose: 100.0 mg/kg/injection, schedule: Q01DX009 (ip), vehicle: saline with Tween-80
[12] = dose: 50.0 mg/kg/injection, schedule: Q01DX005 (ip), vehicle: saline with Tween-80
[13] = dose: 100.0 mg/kg/injection, schedule: Q01DX005 (ip), vehicle: saline with Tween-80
[14] = dose: 200.0 mg/kg/injection, schedule: Q01DX005 (ip), vehicle: saline with Tween-80
[15] = dose: 25.0 mg/kg/injection, schedule: Q01DX009 (ip), vehicle: saline with Tween-80
[16] = dose: 60.0 mg/kg/injection, schedule: Q01DX005 (ip), vehicle: Klucel (hydroxypropylcellulose) (HPC)
[17] = dose: 120.0 mg/kg/injection, schedule: Q01DX005 (ip), vehicle: Klucel (hydroxypropylcellulose) (HPC)
[18] = dose: 240.0 mg/kg/injection, schedule: Q01DX005 (ip), vehicle: Klucel (hydroxypropylcellulose) (HPC)

## Cc1ccnc(C2=C(O)c3ccccc3C2=O)c1
[1]
  T/C: 102 % of control
[2]
  T/C: 90 % of control
[3]
  T/C: 91 % of control

## CN1C(=O)C(O)(c2c3c(c(C4(O)C(=O)N(C)c5ccccc54)c4c2OCO4)OCO3)c2ccccc21 (configuration not stated)
[4]
  T/C: 89 % of control
[5]
  T/C: 91 % of control
[6]
  T/C: 91 % of control

## N#C/C(=N\O)C(N)=O
dose: 25.0 mg/kg/injection, schedule: Q01DX009 (ip), vehicle: saline
  T/C: 92 % of control
[7]
  T/C: 105 % of control
[8]
  T/C: 105 % of control
[9]
  T/C: 98 % of control

## C[N+]1(C)CCN(Cc2ccc3c(c2)CCc2ccccc2N3)CC1
dose: 3.75 mg/kg/injection, schedule: Q01DX005 (ip), vehicle: saline
  T/C: 104 % of control
dose: 7.5 mg/kg/injection, schedule: Q01DX005 (ip), vehicle: saline
  T/C: 96 % of control

## O=c1[nH]c(=O)c2c([nH]1)oc1ccccc12
[4]
  T/C: 102 % of control
[5]
  T/C: 95 % of control
[6]
  T/C: 98 % of control

## COc1ccc(/C=N/Nc2nnc3c4ccccc4c4ncccc4c3n2)cc1
dose: 100.0 mg/kg/injection, schedule: Q01DX001 (ip), vehicle: saline with Tween-80
  T/C: 88 % of control
dose: 200.0 mg/kg/injection, schedule: Q01DX001 (ip), vehicle: saline with Tween-80
  T/C: 95 % of control
dose: 400.0 mg/kg/injection, schedule: Q01DX001 (ip), vehicle: saline with Tween-80
  T/C: 106 % of control

## CC(=O)OC1CCC2C3CCc4cc(OP(=O)(N5CC5)N5CC5)ccc4C3CCC12C (configuration not stated)
[10]
  T/C: 92 % of control
[11]
  T/C: 114 % of control
dose: 200.0 mg/kg/injection, schedule: Q01DX009 (ip), vehicle: saline with Tween-80
  T/C: 108 % of control

## Cc1cc2cc3c(=O)n(C)c(=O)nc-3n(C)c2cc1C
[12]
  T/C: 92 % of control
[13]
  T/C: 98 % of control
[14]
  T/C: 95 % of control

## NCC(=O)NC(CCCN=C(N)N)C(=O)O (configuration not stated)
dose: 50.0 mg/kg/injection, schedule: Q01DX005 (ip), vehicle: saline
  T/C: 96 % of control
dose: 100.0 mg/kg/injection, schedule: Q01DX005 (ip), vehicle: saline
  T/C: 99 % of control
dose: 200.0 mg/kg/injection, schedule: Q01DX005 (ip), vehicle: saline
  T/C: 99 % of control

## N#CC(CCCC(C#N)c1ccccc1)c1ccccc1 (configuration not stated)
dose: 50.0 mg/kg/injection, schedule: Q01DX001 (ip), vehicle: Klucel (hydroxypropylcellulose) (HPC)
  T/C: 106 % of control
dose: 100.0 mg/kg/injection, schedule: Q01DX001 (ip), vehicle: Klucel (hydroxypropylcellulose) (HPC)
  T/C: 108 % of control

## O=C1CSC(c2ccc(Cl)cc2)N1CCN1C(=O)CSC1c1ccc(Cl)cc1 (configuration not stated)
dose: 100.0 mg/kg/injection, schedule: Q04DX003 (ip), vehicle: saline with Tween-80
  T/C: 95 % of control
dose: 200.0 mg/kg/injection, schedule: Q04DX003 (ip), vehicle: saline with Tween-80
  T/C: 93 % of control
dose: 400.0 mg/kg/injection, schedule: Q04DX003 (ip), vehicle: saline with Tween-80
  T/C: 88 % of control

## F[B-](F)(F)F
dose: 12.5 mg/kg/injection, schedule: Q01DX009 (ip), vehicle: gum acacia
  T/C: 111 % of control
dose: 25.0 mg/kg/injection, schedule: Q01DX009 (ip), vehicle: gum acacia
  T/C: 118 % of control
dose: 50.0 mg/kg/injection, schedule: Q01DX009 (ip), vehicle: gum acacia
  T/C: 109 % of control and 114 % of control
dose: 100.0 mg/kg/injection, schedule: Q01DX009 (ip), vehicle: gum acacia
  T/C: 123 % of control

## CC(C)c1ccc(O)c(=O)cc1
[15]
  T/C: 99 % of control
[10]
  T/C: 102 % of control
[11]
  T/C: 114 % of control

## CCOP1(=O)OC(c2ccccc2)C(C)N1C (configuration not stated)
[1]
  T/C: 100 % of control
[2]
  T/C: 104 % of control
[3]
  T/C: 107 % of control

## O=c1c2ccccc2oc2nc3ccccc3nc12
[16]
  T/C: 101 % of control
[17]
  T/C: 103 % of control

## O=c1[nH]c(Br)nc2nc[nH]c12
[12]
  T/C: 93 % of control
[13]
  T/C: 94 % of control
[14]
  T/C: 92 % of control

## CCOC(=O)C(CNC(=O)c1ccccc1)(NC(C)=O)C(=O)OCC
dose: 12.5 mg/kg/injection, schedule: Q01DX009 (ip), vehicle: other
  T/C: 121 % of control
dose: 25.0 mg/kg/injection, schedule: Q01DX009 (ip), vehicle: other
  T/C: 121 % of control
dose: 50.0 mg/kg/injection, schedule: Q01DX009 (ip), vehicle: other
  T/C: 112 % of control
dose: 100.0 mg/kg/injection, schedule: Q01DX009 (ip), vehicle: other
  T/C: 97 % of control
dose: 200.0 mg/kg/injection, schedule: Q01DX009 (ip), vehicle: other
  T/C: 103 % of control

## Cc1c2c(c(C)c3c1C(=O)c1cc4c(cc1C3=O)OCO4)OC(C)O2
[4]
  T/C: 89 % of control
[5]
  T/C: 89 % of control
[6]
  T/C: 91 % of control

## C=CCn1c(NCCN(CC)CC)nc2ccc(Cl)cc2c1=O
dose: 12.5 mg/kg/injection, schedule: Q01DX009 (ip), vehicle: saline sonified
  T/C: 100 % of control
dose: 25.0 mg/kg/injection, schedule: Q01DX009 (ip), vehicle: saline sonified
  T/C: 104 % of control
dose: 50.0 mg/kg/injection, schedule: Q01DX009 (ip), vehicle: saline sonified
  T/C: 104 % of control

## CC(C)(SSC(C)(C)C1NC(=O)NC1=O)C1NC(=O)NC1=O (configuration not stated)
dose: 6.25 mg/kg/injection, schedule: Q01DX005 (ip), vehicle: Klucel (hydroxypropylcellulose) (HPC)
  T/C: 102 % of control
dose: 12.5 mg/kg/injection, schedule: Q01DX005 (ip), vehicle: Klucel (hydroxypropylcellulose) (HPC)
  T/C: 99 % of control
dose: 25.0 mg/kg/injection, schedule: Q01DX005 (ip), vehicle: Klucel (hydroxypropylcellulose) (HPC)
  T/C: 98 % of control

## CCn1ncc2c1nc(-c1ccccc1)c[n+]2[O-]
[16]
  T/C: 92 % of control
[17]
  T/C: 100 % of control
[18]
  T/C: 101 % of control

## O=C1CSC(c2cccc(Cl)c2)N1c1nncs1 (configuration not stated)
[4]
  T/C: 109 % of control
[5]
  T/C: 97 % of control
[6]
  T/C: 98 % of control

## Cc1cccc(NC(=O)C(=O)C(C#N)c2c(Cl)cccc2Cl)c1C (configuration not stated)
[4]
  T/C: 102 % of control
[5]
  T/C: 96 % of control
[6]
  T/C: 100 % of control

## CC(C)CC(CO)Cc1nc2ccccc2[nH]1 (configuration not stated)
[4]
  T/C: 114 % of control
[5]
  T/C: 105 % of control

## Cc1cc(OC(=O)c2c(-c3c(Cl)cccc3Cl)noc2C)n(-c2ccc(NC(=O)c3c(-c4c(Cl)cccc4Cl)noc3C)cc2)n1
[7]
  T/C: 93 % of control
[8]
  T/C: 89 % of control
[9]
  T/C: 88 % of control

## CCCCCC(C(=O)OCC)/C(C)=N\NC(N)=S (configuration not stated)
[16]
  T/C: 100 % of control
[17]
  T/C: 98 % of control
[18]
  T/C: 100 % of control

## CC12CCC(=O)C1C=CC2=O (configuration not stated)
dose: 100.0 mg/kg/injection, schedule: Q04DX003 (ip), vehicle: saline + Tween-80 + alcohol
  T/C: 100 % of control
dose: 200.0 mg/kg/injection, schedule: Q04DX003 (ip), vehicle: saline + Tween-80 + alcohol
  T/C: 112 % of control

## COc1cccc(CN2CCNCC2)c1
dose: 6.25 mg/kg/injection, schedule: Q01DX009 (ip), vehicle: water
  T/C: 90 % of control
dose: 12.5 mg/kg/injection, schedule: Q01DX009 (ip), vehicle: water
  T/C: 94 % of control
dose: 25.0 mg/kg/injection, schedule: Q01DX009 (ip), vehicle: water
  T/C: 93 % of control
dose: 50.0 mg/kg/injection, schedule: Q01DX009 (ip), vehicle: water
  T/C: 94 % of control

## CC(C)(C)N(O)c1cccc(P(=O)(c2ccccc2)c2ccccc2)c1
[15]
  T/C: 108 % of control
[10]
  T/C: 94 % of control
[11]
  T/C: 92 % of control

## O=C1C(N=Nc2ccc(S(=O)(=O)Nc3ccccn3)cc2)C(=O)N(c2ccccc2)C(=S)N1c1ccccc1
dose: 60.0 mg/kg/injection, schedule: Q01DX005 (ip), vehicle: saline
  T/C: 95 % of control
dose: 120.0 mg/kg/injection, schedule: Q01DX005 (ip), vehicle: saline
  T/C: 104 % of control
dose: 240.0 mg/kg/injection, schedule: Q01DX005 (ip), vehicle: saline
  T/C: 100 % of control

## Nc1nc2c(C(=O)N3CCCC3)nnn2c2ccccc12
[10]
  T/C: 93 % of control
[11]
  T/C: 94 % of control
